Results published in DBAASP.
In brackets after ≈: the same amount, converted by molar mass.

Columns and labels:
Assay in all cases: ≥ marks a high value that may be exact or a test limit, other limits are often not marked, values filed in µg/mL are converted to µM
Staphylococcus aureus 1 = system: Staphylococcus aureus 1
Escherichia coli B = system: Escherichia coli B
Staphylococcus aureus = system: Staphylococcus aureus
[1] = system: Staphylococcus aureus ATCC 43300
Pseudomonas aeruginosa = system: Pseudomonas aeruginosa
[2] = system: Staphylococcus epidermidis
[3] = system: Pseudomonas aeruginosa ATCC 27853
[4] = system: Micrococcus luteus CCM 144
Bacillus subtilis 168 = system: Bacillus subtilis 168
[5] = system: Candida albicans F7-39/IDE99
[6] = system: Pseudomonas aeruginosa CGMCC 1.860
[7] = system: Pseudomonas aeruginosa 0108
[8] = system: Staphylococcus aureus USA 100
[9] = system: Staphylococcus aureus ATCC 29737
[10] = system: Candida albicans ATCC 10231
[11] = system: Candida albicans ATCC 90028
[12] = system: Escherichia coli ATCC 25922
[13] = system: Staphylococcus epidermidis ATCC 12228
[14] = system: Staphylococcus aureus USA 300
[15] = system: Staphylococcus aureus ATCC 6538
[16] = system: Staphylococcus aureus P1381
[17] = system: Pseudomonas aeruginosa ATCC 9027
[18] = system: Pseudomonas aeruginosa AB93066
[19] = system: Staphylococcus aureus P1374
[20] = system: Staphylococcus aureus ATCC 25923
[21] = system: Staphylococcus aureus AB94004
Escherichia coli AB94012 = system: Escherichia coli AB94012
[22] = system: Pseudomonas aeruginosa DM23155
[23] = system: Klebsiella pneumoniae DM4299
[24] = system: Acinetobacter johnsonii NCDC 0072
[25] = system: Escherichia coli MTCC 0723
[26] = system: Listeria monocytogenes ATCC 19111
[27] = system: Bacillus cereus NCDC 0240
[28] = system: Staphylococcus aureus ATCC 29213
[29] = system: Salmonella enterica subsp. enterica serovar Typhimurium ATCC 14028
[30] = system: Staphylococcus aureus NCDC 0111
[31] = system: Pseudomonas aeruginosa NCDC 0105
[32] = system: Enterococcus faecalis ATCC 29212
[33] = system: Pseudomonas aeruginosa IS350#
[34] = system: Enterobacter cloacae ATCC 13047
Escherichia coli IS218# = system: Escherichia coli IS218#
Escherichia coli IS37# = system: Escherichia coli IS37#
[35] = system: Staphylococcus aureus IS10#
[36] = system: Candida albicans ATCC 2002
Shigella dysenteriae = system: Shigella dysenteriae
[37] = system: Pseudomonas aeruginosa CMCCB 1010
Escherichia coli IS117# = system: Escherichia coli IS117#
[38] = system: Candida parapsilosis ATCC 22019
[39] = system: Klebsiella pneumoniae ATCC 700603

`CC[C@H](C)[C@H](NC(=O)CN)C(=O)N[C@@H](CC(C)C)C(=O)N[C@@H](CO)C(=O)N[C@@H](CO)C(=O)N[C@@H](CC(C)C)C(=O)N[C@@H](CC(C)C)C(=O)N[C@@H](CCCCN)C(=O)N[C@@H](CCCCN)C(=O)N[C@@H](CC(C)C)C(=O)N[C@@H](CCCCN)C(=O)N[C@@H](CCCCN)C(=O)N[C@H](C(=O)N[C@H](C(=O)N[C@@H](C)C(=O)N[C@@H](CCCCN)C(N)=O)[C@@H](C)CC)[C@@H](C)CC` [GILSSLLKKLKKIIAK] was tested, and the MIC (Staphylococcus aureus 1) was 3.8 µM (≈ 6.66 µg/mL), the MIC (Escherichia coli B) was 8 µM (≈ 14 µg/mL) and the MIC (Staphylococcus aureus) was 5 µM (≈ 8.76 µg/mL). The MIC [1] was 16 µM (≈ 28 µg/mL), the MIC (Pseudomonas aeruginosa) was 7.5 µM (≈ 13.1 µg/mL) and the MIC [2] was 1.8 µM (≈ 3.15 µg/mL). For the same molecule, the MIC [3] was 5 µM (≈ 8.76 µg/mL), the MIC [4] was 3 µM (≈ 5.26 µg/mL) and the MIC (Bacillus subtilis 168) was 7 µM (≈ 12.3 µg/mL). It also gave an MIC [5] of 10 µM (≈ 17.5 µg/mL).

`CC[C@H](C)[C@H](N)C(=O)N[C@@H](CCCCN)C(=O)N[C@@H](CCCCN)C(=O)N[C@@H](Cc1c[nH]c2ccccc12)C(=O)N[C@@H](CC(C)C)C(=O)N[C@@H](CO)C(=O)N[C@@H](CCCCN)C(=O)N[C@H](C(=O)N[C@@H](CCCCN)C(=O)N[C@@H](CCCCN)C(=O)N[C@@H](CC(C)C)C(=O)N[C@@H](CC(C)C)C(=O)N[C@@H](CCCCN)C(N)=O)[C@@H](C)CC` [IKKWLSKIKKLLK] was tested, and the MIC [6] was 3.13 µM (≈ 5.09 µg/mL) and the MIC [7] was 6.25 µM (≈ 10.2 µg/mL).

For `CC[C@H](C)[C@H](N)C(=O)N[C@@H](CCCN=C(N)N)C(=O)N[C@H](C(=O)N[C@@H](CCCCN)C(=O)N[C@H](C(=O)N[C@@H](CCCN=C(N)N)C(=O)N[C@H](C(=O)N[C@@H](CCCCN)C(N)=O)[C@@H](C)CC)[C@@H](C)CC)[C@@H](C)CC` [IRIKIRIK], the MIC [8] was 12.5 µM (≈ 13 µg/mL), the MIC [9] was no less than 60.1 µM and the MIC [10] was 3.75 µM (≈ 3.9 µg/mL). The MIC [11] was 1.56 µM (≈ 1.62 µg/mL), the MIC [12] was 15 µM (≈ 15.6 µg/mL) and the MIC [13] was 3.75 µM (≈ 3.9 µg/mL). For the same molecule, the MIC [14] was 12.5 µM (≈ 13 µg/mL).

`CC[C@H](C)[C@H](NC(=O)[C@H](CO)NC(=O)[C@H](CCCCN)NC(=O)[C@@H](NC(=O)CNC(=O)[C@H](CCCCN)NC(=O)[C@H](Cc1c[nH]c2ccccc12)NC(=O)[C@H](CC(C)C)NC(=O)[C@H](CCCCN)NC(=O)CNC(=O)[C@H](CC(C)C)NC(=O)[C@@H](NC(=O)[C@@H](N)CC(C)C)[C@@H](C)CC)C(C)C)C(=O)N[C@@H](Cc1ccccc1)C(N)=O` [LILGKLWKGVKSIF] was tested, and the MIC [15] was 7.8 µM (≈ 12.5 µg/mL), the MIC [16] was 15.6 µM (≈ 25 µg/mL) and the MIC [17] was 15.6 µM (≈ 25 µg/mL). For the same molecule, the MIC [18] was no less than 62.4 µM, the MIC [12] was 62.4 µM (≈ 99.9 µg/mL) and the MIC [19] was 3.9 µM (≈ 6.25 µg/mL). For the same molecule, the MIC [20] was 7.8 µM (≈ 12.5 µg/mL), the MIC [21] was 7.8 µM (≈ 12.5 µg/mL) and the MIC (Escherichia coli AB94012) was 31.2 µM (≈ 50 µg/mL).

`CC(=O)N[C@@H](CCCN=C(N)N)C(=O)NCC(=O)N[C@@H](CCCN=C(N)N)C(=O)N[C@@H](CCCCN)C(=O)N[C@H](C(=O)N[C@H](C(=O)N[C@@H](CCCN=C(N)N)C(=O)N[C@@H](CCCN=C(N)N)C(=O)N[C@@H](CCCCN)C(=O)N[C@@H](CCCCN)C(=O)O)C(C)C)C(C)C` [RGRKVVRRKK] was tested, and the MIC [12] was 6 µM (≈ 7.95 µg/mL), the MIC [22] was 6 µM (≈ 7.95 µg/mL) and the MIC [23] was 6 µM (≈ 7.95 µg/mL).

With `CC[C@H](C)[C@H](NC(=O)[C@@H](N)CCCN=C(N)N)C(=O)N[C@@H](CCCN=C(N)N)C(=O)N[C@@H](Cc1ccccc1)C(=O)N1CCC[C@H]1C(=O)N[C@@H](Cc1c[nH]c2ccccc12)C(=O)N1CCC[C@H]1C(=O)N[C@@H](Cc1c[nH]c2ccccc12)C(=O)N[C@@H](CCCN=C(N)N)C(=O)N[C@@H](Cc1c[nH]c2ccccc12)C(=O)N1CCC[C@H]1C(=O)N[C@@H](Cc1c[nH]c2ccccc12)C(=O)N[C@@H](Cc1c[nH]c2ccccc12)C(=O)N1CCC[C@H]1C(=O)N[C@@H](CCCN=C(N)N)C(=O)N[C@@H](Cc1ccccc1)C(=O)N[C@@H](CCCN=C(N)N)C(=O)NCC(=O)O` [RIRFPWPWRWPWWPRFRG] the MIC [24] was no less than 50 µM, the MIC [25] was 6 µM (≈ 15.5 µg/mL) and the MIC [26] was 6 µM (≈ 15.5 µg/mL). The MIC [27] was 1.5 µM (≈ 3.87 µg/mL), the MIC [28] was 6 µM (≈ 15.5 µg/mL) and the MIC [29] was 50 µM (≈ 129 µg/mL). It also gave an MIC [3] of 25 µM (≈ 64.6 µg/mL), an MIC [30] of 12.5 µM (≈ 32.3 µg/mL) and an MIC [31] of no less than 50 µM.

For `CC[C@H](C)[C@H](NC(=O)[C@@H](N)C(C)C)C(=O)N1CCC[C@H]1C(=O)N[C@@H](Cc1ccccc1)C(=O)N[C@H](C(=O)N[C@@H](C)C(=O)N[C@@H](CO)C(=O)N[C@H](C(=O)N[C@@H](C)C(=O)N[C@@H](C)C(=O)N[C@@H](CCC(=O)O)C(=O)N[C@@H](CCSC)C(=O)N[C@@H](CCSC)C(=O)N[C@@H](CCC(N)=O)C(=O)N[C@@H](Cc1cnc[nH]1)C(=O)N[C@H](C(=O)N[C@@H](Cc1ccc(O)cc1)C(=O)N[C@H]1CSSC[C@@H](C(=O)O)NC(=O)[C@H](CCCN=C(N)N)NC(=O)[C@H](CCCCN)NC(=O)[C@H](CO)NC(=O)[C@H](C)NC(=O)[C@H](C)NC1=O)C(C)C)C(C)C)C(C)C` [VIPFVASVAAEMMQHVYCAASKRC], the MIC [32] was 1.91 µM (≈ 5 µg/mL), the MIC [33] was 19.1 µM (≈ 50 µg/mL) and the MIC [11] was 3.83 µM (≈ 9.99 µg/mL). For the same molecule, the MIC [34] was 3.83 µM (≈ 9.99 µg/mL), the MIC [12] was 1.91 µM (≈ 5 µg/mL) and the MIC (Escherichia coli IS218#) was 19.1 µM (≈ 50 µg/mL). For the same molecule, the MIC (Escherichia coli IS37#) was 19.1 µM (≈ 50 µg/mL), the MIC [35] was 19.1 µM (≈ 50 µg/mL) and the MIC [20] was 3.83 µM (≈ 9.99 µg/mL). The MIC [36] was 1.91 µM (≈ 5 µg/mL), the MIC (Shigella dysenteriae) was 3.83 µM (≈ 9.99 µg/mL) and the MIC [37] was 3.83 µM (≈ 9.99 µg/mL). It also gave an MIC [3] of 7.66 µM (≈ 20 µg/mL), an MIC (Escherichia coli IS117#) of 7.66 µM (≈ 20 µg/mL) and an MIC [38] of 7.66 µM (≈ 20 µg/mL). It also gave an MIC [39] of 3.83 µM (≈ 9.99 µg/mL).
